Experiment [1] addresses T1, Recombinant human TDO comprising amino acids 19-407 (Homo sapiens, UniProt P48775).
T1 construct: Recombinant human TDO comprising amino acids 19-407 with a N-terminal hexahistidine tag; hexahistidine (His6) (N); made in house; host or cells: E. coli
The experiment can be described thus: TDO2 enzymatic assay (NFK quantified by LCMS). The experiment is classed as biochemical. The settings on record: 15 nM enzyme, 200 μM L-tryptophan, pH7, 30 minutes pre-incubation at RT; mean values when measured multiple times; read-out: hTDO activity (IC50 in nM). In outline: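 NFK formed over 30 min at RT from 200 μM L-tryptophan was measured by LCMS, normalized to d5-tryptophan, after compound (0.5 nM–10 μM, duplicates, 0.6% DMSO) was preincubated 30 min with 15 nM recombinant His-tagged TDO 19-407 in phosphate buffer pH 7. IC50 from four-parameter logistic fit; repeats averaged.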

The target in experiment [2] is T2, Recombinant full-length human IDO1 (Homo sapiens, UniProt P14902).
T2 construct: Recombinant full-length human IDO1 with a N-terminal hexahistidine tag; hexahistidine (His6) (N); made in house; host or cells: E. coli
The experiment is described as follows: IDO1 enzymatic assay (NFK quantified by LCMS). In kind it is biochemical. The note with it: 2 nM enzyme, 5 μM L-tryptophan, pH6.5, 30 minutes pre-incubation at RT; mean values when measured multiple times; read-out: hIDO activity (IC50 in nM). Put shortly: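 His-tagged human IDO1 (2 nM) in pH 6.5 phosphate buffer with ascorbate, methylene blue and catalase was preincubated with compound (10 μM–0.5 nM, 0.6% DMSO) for 30 min at RT. The reaction then ran with 5 μM L-Trp for 30 min. NFK was measured by LCMS against a d5-Trp standard, and IC50 was obtained by four-parameter fit.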

This note sets out measurements from patent US20200405696A1, “INHIBITORS OF INDOLEAMINE 2,3-DIOXYGENASE AND/OR TRYPTOPHAN 2,3-DIOXYGENASE” (IDORSIA PHARMACEUTICALS LTD, priority 2018, published 2020).

T2 sequence (P14902 whole entry): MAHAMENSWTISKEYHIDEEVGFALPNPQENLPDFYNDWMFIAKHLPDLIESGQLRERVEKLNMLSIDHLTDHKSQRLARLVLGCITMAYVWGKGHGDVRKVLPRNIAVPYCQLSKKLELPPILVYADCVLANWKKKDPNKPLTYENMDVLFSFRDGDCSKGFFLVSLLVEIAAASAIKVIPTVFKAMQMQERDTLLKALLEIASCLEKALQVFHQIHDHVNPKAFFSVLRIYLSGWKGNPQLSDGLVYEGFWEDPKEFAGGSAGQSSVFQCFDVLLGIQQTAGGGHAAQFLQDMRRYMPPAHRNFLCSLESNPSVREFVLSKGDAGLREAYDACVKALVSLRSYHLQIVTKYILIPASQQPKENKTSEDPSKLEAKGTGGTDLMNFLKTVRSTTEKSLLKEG
T1 sequence (P48775 19-406 limits assumed): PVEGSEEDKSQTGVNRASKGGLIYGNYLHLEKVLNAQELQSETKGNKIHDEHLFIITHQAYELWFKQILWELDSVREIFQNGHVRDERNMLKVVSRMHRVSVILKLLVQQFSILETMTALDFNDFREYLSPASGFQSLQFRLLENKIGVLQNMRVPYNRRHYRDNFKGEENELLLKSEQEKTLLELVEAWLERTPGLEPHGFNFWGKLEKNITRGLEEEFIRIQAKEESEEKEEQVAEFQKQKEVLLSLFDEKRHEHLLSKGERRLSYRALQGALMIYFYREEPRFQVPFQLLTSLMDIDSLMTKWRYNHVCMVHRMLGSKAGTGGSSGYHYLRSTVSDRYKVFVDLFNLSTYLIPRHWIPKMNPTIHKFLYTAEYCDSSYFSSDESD

The term IC50 denotes the concentration needed to halve the response being measured. Turning to `Oc1cccc(-n2cc(C(O)c3c(C4CC4)sc4cncn34)nn2)c1` (racemic) [Example 215, rac-3-{4-[(2-Cyclopropyl-imidazo[5,1-b]thiazol-3-yl)-hydroxy-methyl]-[1,2,3]triazol-1-yl}-phenol], the half-inhibitory concentration (IC50) is over 10200 nM in experiment [1] and 27.6 nM in experiment [2].

Turning to `COc1ccc(-n2cc(C(O)c3c(C)sc4cncn34)nn2)cc1` (racemic) [Example 261, rac-[1-(4-Methoxy-phenyl)-1H-[1,2,3]triazol-4-yl]-(2-methyl-imidazo[5,1-b]thiazol-3-yl)-methanol], the half-inhibitory concentration (IC50) in experiment [1] is over 10200 nM; in experiment [2], 51.7 nM.

On to `N#Cc1ccc(-n2cc(C(O)c3c(C4CC4)sc4cncn34)nn2)cc1` (racemic) [Example 11, rac-4-{4-[(2-Cyclopropyl-imidazo[5,1-b]thiazol-3-yl)-hydroxy-methyl]-[1,2,3]triazol-1-yl}-benzonitrile], for which the IC50 was over 10200 nM in experiment [1] and 39.6 nM in experiment [2].

On to `CCc1sc2cncn2c1C(O)c1cn(-c2ccc(C(=O)N(C)CC)cc2)nn1` (racemic) [Example 124, rac-N-Ethyl-4-{4-[(2-ethyl-imidazo[5,1-b]thiazol-3-yl)-hydroxy-methyl]-[1,2,3]triazol-1-yl}-N-methyl-benzamide], for which the half-inhibitory concentration (IC50) in experiment [1] is over 10200 nM; in experiment [2], 109 nM.

Turning to `CCc1sc2cncn2c1C(O)c1cn(-c2ccc(C(=O)NCCN(C)C)cc2)nn1` (racemic) [Example 119, rac-N-(2-Dimethylamino-ethyl)-4-{4-[(2-ethyl-imidazo[5,1-b]thiazol-3-yl)-hydroxy-methyl]-[1,2,3]triazol-1-yl}-benzamide], the half-maximal inhibitory concentration (IC50) in experiment [1] is 9720 nM; in experiment [2] it was 133 nM.

In the case of `COc1ccccc1-n1cc(C(O)c2c(C3CC3)sc3cncn23)nn1` (racemic) [Example 7, rac-(2-Cyclopropyl-imidazo[5,1-b]thiazol-3-yl)-[1-(2-methoxy-phenyl)-1H-[1,2,3]triazol-4-yl]-methanol], the values for the half-maximal inhibitory concentration (IC50) in experiment [1] and in experiment [2] were over 10200 nM and 50.9 nM, respectively.

Consider `CCc1sc2cncn2c1C(O)c1cn(-c2ccc(C(N)=O)cc2)nn1` (racemic) [Example 116, rac-4-{4-[(2-Ethyl-imidazo[5,1-b]thiazol-3-yl)-hydroxy-methyl]-[1,2,3]triazol-1-yl}-benzamide], for which the IC50 in experiment [1] is 5210 nM; in experiment [2] it was 12.3 nM.

Take `CN1CCCC(COc2ccc(-n3cc(C(O)c4c(C5CC5)sc5cncn45)nn3)cc2)C1` (stereo not shown) [Example 146, (2-Cyclopropyl-imidazo[5,1-b]thiazol-3-yl)-{1-[4-(1-methyl-piperidin-3-ylmethoxy)-phenyl]-1H-[1,2,3]triazol-4-yl}-methanol]: the IC50 in experiment [1] is over 10200 nM; in experiment [2], 44.4 nM.

As to `Oc1ccc(-n2cc(C(O)c3c(C4CC4)sc4cncn34)nn2)cc1` (racemic) [Example 68, rac-4-{4-[(2-Cyclopropyl-imidazo[5,1-b]thiazol-3-yl)-hydroxy-methyl]-[1,2,3]triazol-1-yl}-phenol], the IC50 is over 10200 nM in experiment [1] and 8.08 nM in experiment [2].

`CC1NS(=O)(=O)c2ccc(-n3cc(C(O)c4c(C5CC5)sc5cncn45)nn3)cc21` (stereo not shown) [Example 228, (2-Cyclopropyl-imidazo[5,1-b]thiazol-3-yl)-[1-(3-methyl-1,1-dioxo-2,3-dihydro-1H-1I6-benzo[d]isothiazol-5-yl)-1H-[1,2,3]triazol-4-yl]-methanol]: the 50% inhibitory concentration (IC50) is over 10200 nM in experiment [1] and 76.1 nM in experiment [2].

Regarding `OC(c1cn(-c2ccc3[nH]ccc3c2)nn1)c1c(C2CC2)sc2cncn12` (racemic) [Example 16, rac-(2-Cyclopropyl-imidazo[5,1-b]thiazol-3-yl)-[1-(1H-indol-5-yl)-1H-[1,2,3]triazol-4-yl]-methanol], the results for the IC50 in experiment [1] and in experiment [2] were 7880 nM and 9.03 nM, respectively.

Take `COCCCNC(=O)c1ccc(-n2cc(C(O)c3c(C4CC4)sc4cncn34)nn2)cc1` (racemic) [Example 106, rac-4-{4-[(2-Cyclopropyl-imidazo[5,1-b]thiazol-3-yl)-hydroxy-methyl]-[1,2,3]triazol-1-yl}-N-(3-methoxy-propyl)-benzamide]: the concentration for half-maximal inhibition (IC50) in experiment [1] is over 10200 nM; in experiment [2] it was 19.6 nM.

For `O[C@@H](c1cn(-c2ccc(OCC3CCOCC3)c(Cl)c2)nn1)c1c(C2CC2)sc2cncn12` [Example 276, (R)-{1-[3-Chloro-4-(tetrahydro-pyran-4-ylmethoxy)-phenyl]-1H-[1,2,3]triazol-4-yl}-(2-cyclopropyl-imidazo[5,1-b]thiazol-3-yl)-methanol], the half-maximal inhibitory concentration (IC50) was over 10200 nM in experiment [1] and 4.63 nM in experiment [2].

Consider `Cc1cc(-n2cc(C(O)c3c(C4CC4)sc4cncn34)nn2)ccc1O` (racemic) [Example 211, rac-4-{4-[(2-Cyclopropyl-imidazo[5,1-b]thiazol-3-yl)-hydroxy-methyl]-[1,2,3]triazol-1-yl}-2-methyl-phenol], for which the IC50 in experiment [1] was over 10200 nM; in experiment [2], 15.8 nM.

For `CN(C)C(=O)c1ccc(-n2cc(C(O)c3c(C4CC4)sc4cncn34)nn2)cc1` (racemic) [Example 195, rac-4-{4-[(2-Cyclopropyl-imidazo[5,1-b]thiazol-3-yl)-hydroxy-methyl]-[1,2,3]triazol-1-yl}-N,N-dimethyl-benzamide], the half-maximal inhibitory concentration (IC50) in experiment [1] was over 10200 nM; in experiment [2], 145 nM.

As for `CCc1sc2cncn2c1C(O)c1cn(-c2ccccc2)nn1` (racemic) [Example 12, rac-(2-Ethyl-imidazo[5,1-b]thiazol-3-yl)-(1-phenyl-1H-[1,2,3]triazol-4-yl)-methanol], the results for the IC50 in experiment [1] and in experiment [2] were 6740 nM and 20.8 nM, respectively.

Regarding `OC(c1ccc(-c2cccc(C(F)(F)F)c2)s1)c1c(C2CC2)sc2cncn12` (racemic) [Example 165, rac-(2-Cyclopropyl-imidazo[5,1-b]thiazol-3-yl)-[5-(3-trifluoromethyl-phenyl)-thiophen-2-yl]-methanol], the half-maximal inhibitory concentration (IC50) in experiment [1] was over 10200 nM; in experiment [2], 716 nM.

Turning to `COc1ccc(-n2nnc(C(O)c3c(C4CC4)sc4cncn34)c2I)cc1` (racemic) [Example 334, rac-(2-Cyclopropyl-imidazo[5,1-b]thiazol-3-yl)-[5-iodo-1-(4-methoxy-phenyl)-1H-[1,2,3]triazol-4-yl]-methanol], the IC50 in experiment [1] came to 7280 nM; in experiment [2] it was 12.1 nM.

Regarding `OC(c1cn(-c2ccc(Cl)cc2)nn1)c1c(C2CC2)sc2cncn12` (racemic) [Example 34, rac-[1-(4-Chloro-phenyl)-1H-[1,2,3]triazol-4-yl]-(2-cyclopropyl-imidazo[5,1-b]thiazol-3-yl)-methanol], the results for the half-maximal inhibitory concentration (IC50) in experiment [1] and in experiment [2] were over 10200 nM and 21.9 nM, respectively.

In the case of `CNS(=O)(=O)c1ccc(-n2cc(C(O)c3c(C4CC4)sc4cncn34)nn2)cc1` (racemic) [Example 226, rac-4-{4-[(2-Cyclopropyl-imidazo[5,1-b]thiazol-3-yl)-hydroxy-methyl]-[1,2,3]triazol-1-yl}-N-methyl-benzenesulfonamide], the concentration for half-maximal inhibition (IC50) is over 10200 nM in experiment [1] and 63.6 nM in experiment [2].

For `CCCC=Cc1sc2cncn2c1C(O)c1cn(-c2ccc(OC)cc2)nn1` (racemic) [Example 271, rac-[1-(4-Methoxy-phenyl)-1H-[1,2,3]triazol-4-yl]-[((E)-2-(pent-1-enyl))-imidazo[5,1-b]thiazol-3-yl]-methanol], the 50% inhibitory concentration (IC50) in experiment [1] was over 10200 nM; in experiment [2], 225 nM.

As to `Cc1sc2cncn2c1C(O)c1cn(-c2ccccc2)nn1` (racemic) [Example 17, rac-(2-Methyl-imidazo[5,1-b]thiazol-3-yl)-(1-phenyl-1H-[1,2,3]triazol-4-yl)-methanol], the IC50 is over 10200 nM in experiment [1] and 154 nM in experiment [2].

For `CCc1sc2cncn2c1C(O)c1cn(-c2ccc(NC(=O)OC)cc2)nn1` (racemic) [Example 49, rac-(4-{4-[(2-Ethyl-imidazo[5,1-b]thiazol-3-yl)-hydroxy-methyl]-[1,2,3]triazol-1-yl}-phenyl)-carbamic Acid Methyl Ester], the values for the IC50 in experiment [1] and in experiment [2] were 2110 nM and 10.9 nM, respectively.

Consider `OC(c1cn(-c2ccc(OCC3(F)COC3)cc2)nn1)c1c(C2CC2)sc2cncn12` (racemic) [Example 145, rac-(2-Cyclopropyl-imidazo[5,1-b]thiazol-3-yl)-{1-[4-(3-fluoro-oxetan-3-ylmethoxy)-phenyl]-1H-[1,2,3]triazol-4-yl}-methanol], for which the IC50 in experiment [1] is over 10200 nM; in experiment [2], 7.77 nM.

Turning to `Cc1sc2cncn2c1C(O)c1cc(-c2ccccc2)no1` (racemic) [Example 156, rac-(2-Methyl-imidazo[5,1-b]thiazol-3-yl)-(3-phenyl-isoxazol-5-yl)-methanol], the IC50 in experiment [1] is over 10200 nM; in experiment [2], 406 nM.

With `COc1ccc(-n2cc(C(O)c3c(/C=C/C4CC4)sc4cncn34)nn2)cc1` (racemic) [Example 270, rac-[2-((E)-2-Cyclopropyl-vinyl)-imidazo[5,1-b]thiazol-3-yl]-[1-(4-methoxy-phenyl)-1H-[1,2,3]triazol-4-yl]-methanol], the half-inhibitory concentration (IC50) in experiment [1] was over 10200 nM; in experiment [2], 71.5 nM.
